According to ChEMBL document CHEMBL1127713, “Anti-HIV activity of N-(2,3-dihalogenopropyl)- and N-allyl-glycine containing pentapeptides” (Bioorg Med Chem Lett, 1994):
≈ marks a conversion by molar mass, not a printed value. Where “and” joins values, the source holds several entries; their conditions need not be identical. Equal entries are not always repeated. Starred links: 1 amine or outer side, 2 acyl side, 3 side chain; linkers in the order of their positions; H or OH if unused. Non-standard residues stand in square brackets, D forms with d. Residues, ends and D or L forms follow the SMILES beside them. *: point of attachment. X2 = C=CCN([C@@H](C)C(=O)[*:2])[*:1]; X1 = O=C(CN(CC(Br)CBr)[*:1])[*:2]; X3 = O=C(CN(CC(Cl)CCl)[*:1])[*:2]; NAllylGly = C=CCNCC(=O)O; Boc = CC(C)(C)OC(=O)*

Tests used:
[1] = biological target: Human immunodeficiency virus type 1 protease (Human immunodeficiency virus 1, UniProt Q72874); experiment: Antiviral activity against HIV-1 in CEM cells.; format: functional, cell-based; settings: ccrf-cem
[2] = biological target: Human immunodeficiency virus type 1 protease (Human immunodeficiency virus 1) (UniProt Q72874); experiment: Inhibitory activity against HIV-1 Protease using VSQNF(NO2)PIV as substrate in spectrophotometric assay at 10e-5 concentration
[3] = biological target: Human immunodeficiency virus type 1 protease (Human immunodeficiency virus 1) (UniProt Q72874); experiment: Inhibitory activity against HIV-1 Protease using Suc-TLNFPIS-4-AMC as substrate in fluorescence assay at 10e-5 concentration
CCRF-CEM [4] = experiment: Compound was tested for antiviral activity against HIV-1 in CEM cells; Non active compound; format: functional, cell-based, Homo sapiens
CCRF-CEM [5] = experiment: Compound was tested for antiviral activity against HIV-1 in CEM cells; format: functional, cell-based; settings: Homo sapiens
[6] = Selectivity index between IC50 and EC50; format: functional
CCRF-CEM [7] = experiment: Dose required for reduce the reverse transcriptase activity in infected cell supernatant; format: functional, cell-based; settings: Homo sapiens

C=CCN(CC(=O)N[C@H](C(=O)N[C@H](C(=O)OC)C(C)C)[C@@H](C)CC)C(=O)OC(C)(C)C
EC50 [1]: Not Active

C=CCN(C(=O)[C@H](Cc1ccccc1)NC(=O)OC(C)(C)C)[C@@H](C)C(=O)N[C@H](C(=O)N[C@H](C(=O)OC)C(C)C)[C@@H](C)CC
inhibition [2]: 0% and 7% | inhibition [3]: 3% | EC50 [1]: Not Active

C=CCNCC(=O)N[C@H](C(=O)N[C@H](C(=O)OC)C(C)C)[C@@H](C)CC
EC50 [1]: Not Active

CC[C@H](C)[C@H](NC(=O)CN(CC(Cl)CCl)C(=O)[C@H](Cc1ccccc1)NC(=O)OC(C)(C)C)C(=O)N[C@H](C(=O)OC)C(C)C (stereo partly specified)
inhibition [2]: 0% and 2% | inhibition [3]: 0% | EC50 [1]: Not Active

CC[C@H](C)[C@H](NC(=O)CN(CC(Br)CBr)C(=O)[C@H](Cc1ccccc1)NC(=O)OC(C)(C)C)C(=O)N[C@H](C(=O)OC)C(C)C (stereo partly specified)
inhibition [2]: 8% and 10% | inhibition [3]: 0% | EC50 [1]: Not Active

C=CCN(CC(=O)N[C@H](C(=O)N[C@H](C(=O)OC)C(C)C)[C@@H](C)CC)C(=O)[C@H](Cc1ccccc1)NC(=O)[C@H](C)NC(=O)[C@H](C)NC(=O)OC(C)(C)C (Boc-AAF[NAllylGly]IV-OMe)
inhibition [2]: 0% and 21% | IC50 (CCRF-CEM [4]): Not Active | inhibition [3]: 0% | EC50 [1]: Not Active

C=CCN(C(=O)[C@H](Cc1ccccc1)NC(=O)[C@H](C)NC(=O)[C@H](C)NC(=O)OC(C)(C)C)[C@@H](C)C(=O)N[C@H](C(=O)N[C@H](C(=O)OC)C(C)C)[C@@H](C)CC (Boc-AAF[X2]IV-OMe)
inhibition [2]: 0% | inhibition [3]: 1% | EC50 [1]: Not Active

C=CCN(CC(=O)N[C@H](C(=O)N[C@H](C(=O)OC)C(C)C)[C@@H](C)CC)C(=O)[C@H](Cc1ccccc1)NC(=O)[C@H](C)NC(=O)OC(C)(C)C (Boc-AF[NAllylGly]IV-OMe)
EC50 (CCRF-CEM [5]): 8.15 µg/mL (≈ 12.4 µM) | Ratio [6]: 4.03 | inhibition [2]: 1% and 4% | inhibition [3]: 0% | EC50 (CCRF-CEM [7]): 10 µg/mL (≈ 15.2 µM)

CC[C@H](C)[C@H](NC(=O)CN(CC(Br)CBr)C(=O)[C@H](Cc1ccccc1)NC(=O)[C@H](C)NC(=O)OC(C)(C)C)C(=O)N[C@H](C(=O)OC)C(C)C (stereo partly specified) (Boc-AF[X1]IV-OMe)
EC50 (CCRF-CEM [5]): 111 µg/mL (≈ 135 µM) | Ratio [6]: > 4.5 | inhibition [2]: 3% and 0% | inhibition [3]: 0% | EC50 (CCRF-CEM [7]): 200 µg/mL (≈ 244 µM)

C=CCN(C(=O)[C@H](Cc1ccccc1)NC(=O)[C@H](C)NC(=O)OC(C)(C)C)[C@@H](C)C(=O)N[C@H](C(=O)N[C@H](C(=O)OC)C(C)C)[C@@H](C)CC (Boc-AF[X2]IV-OMe)
EC50 (CCRF-CEM [5]): 80 µg/mL (≈ 119 µM) | Ratio [6]: > 2.51 | inhibition [2]: 0% and 9% | inhibition [3]: 0% | EC50 (CCRF-CEM [7]): 60 µg/mL (≈ 89 µM)

CC[C@H](C)[C@H](NC(=O)CN(CC(Cl)CCl)C(=O)[C@H](Cc1ccccc1)NC(=O)[C@H](C)NC(=O)OC(C)(C)C)C(=O)N[C@H](C(=O)OC)C(C)C (stereo partly specified) (Boc-AF[X3]IV-OMe)
EC50 (CCRF-CEM [5]): > 100 µg/mL | inhibition [2]: 0% and 12% | inhibition [3]: 0% | EC50 (CCRF-CEM [7]): 100 µg/mL (≈ 137 µM)

C=CCN(CC(=O)N[C@H](C(=O)N[C@H](C(=O)OC)C(C)C)[C@@H](C)CC)C(=O)[C@H](Cc1ccccc1)NC(=O)OC(C)(C)C (Boc-F[NAllylGly]IV-OMe)
inhibition [2]: 10% and 13% | inhibition [3]: 0% | EC50 [1]: Not Active

C=CCN(CC(=O)N[C@H](C(=O)N[C@H](C(=O)OC)C(C)C)[C@@H](C)CC)C(=O)[C@H](Cc1ccccc1)NC(=O)[C@H](C)NC(=O)[C@H](C)NC(=O)[C@H](CO)NC(=O)OC(C)(C)C (Boc-SAAF[NAllylGly]IV-OMe)
inhibition [2]: 14% and 0% | inhibition [3]: 0% | EC50 [1]: Not Active

C=CCN(C(=O)[C@H](Cc1ccccc1)NC(=O)[C@H](C)NC(=O)[C@H](C)NC(=O)[C@H](CO)NC(=O)OC(C)(C)C)[C@@H](C)C(=O)N[C@H](C(=O)N[C@H](C(=O)OC)C(C)C)[C@@H](C)CC (Boc-SAAF[X2]IV-OMe)
EC50 [1]: Not Active

C=CCN(CC(=O)N[C@H](C(=O)N[C@H](C(=O)OC)C(C)C)[C@@H](C)CC)C(=O)[C@H](Cc1ccccc1)NC(=O)[C@H](C)N (H-AF[NAllylGly]IV-OMe)
EC50 [1]: Not Active

C=CCN(CC(=O)N[C@H](C(=O)N[C@H](C(=O)OC)C(C)C)[C@@H](C)CC)C(=O)[C@@H](N)Cc1ccccc1 (H-F[NAllylGly]IV-OMe)
EC50 [1]: Not Active
